One assay addresses USP30 (Homo sapiens (Human), UniProt Q70CQ3). Briefly: Dundee MALDI-TOF mass spectrometry assay (IC50). The format is biochemical. The conditions noted are these: USP30 25 ng/μl, K48-linked diubiquitin 5.6 μM, avg, read-out: Dundee IC50 μM (avg in vitro MS assay). As for the experimental part: Compounds were tested in a MALDI-TOF assay based on the paper by Ritorto et al. (Ritorto et al. Screening of DUB activity and specificity by MALDI-TOF mass spectrometry. Nat. […] USP30 (25 ng/μl) tested against K48-linked diubiquitin (5.6 μM). USP30 was diluted in a buffer containing 40 mM Tris, 0.01% BSA, 1 mM DTT and K48 in 40 mM Tris, 0.01% BSA. The compounds were pre-incubated with the USP30 for 5 mins at room temp before the K48 dimer addition. The assay mixture was then incubated for 45 mins at room temp. The assay was stopped by the addition of TFA to a final concentration of 2% (v/v). […] Then 250 nl of these solutions were spotted onto an MTP AnchorChip 1,536 TF and this is analysed on the Bruker rapifleX MALDI-TOF.

The target of assay [1] is recombinant USP30 (amino acids 57-517 of the human sequence) (Homo sapiens (Human), UniProt Q70CQ3). Briefly: In vitro USP30 biochemical assay (Ubiquitin-Rhodamine).
Protocol: In vitro biochemical assay to establish the potency of compounds for USP30 inhibition: a 384-well plate assay using a fluorophore tagged substrate of USP30 was used for in vitro screening of compounds. Each compound was tested at 10 different concentrations (0.5 to 10,000 nM) in duplicate wells. Compounds were pre-incubated at 25° C. for 30 min in an assay buffer consisting of 20 mM Tris/HCl, pH8.0, 1 mM GSH, 0.01% Triton X-100, 0.03% BGG and 1.5 nM recombinant USP30 (amino acids 57-517 of the human sequence with a C-terminal 6-His tag). Following the pre-incubation, Ubiquitin-Rhodamine substrate dissolved in the assay buffer was added at the final concentration of 25 nM to each well and plates were incubated at 25° C. for an additional 75 minutes. The reaction was stopped by adding 10 mM citric acid and fluorescence was read using excitation wavelength 485 nm, emission of 535 nm. Data were analyzed using Graph Pad Prism software with a four-parameter (floating slope) fit to log concentration data to determine IC50s.
[2] abbreviates: USP30 IC50 μM (avg), Ubiquitin-Rhodamine substrate 25 nM, 1.5 nM recombinant USP30.
Where [3] appears, read: read-out: USP30 IC50 μM (avg), Ubiquitin-Rhodamine substrate 25 nM, 1.5 nM recombinant USP30.

The values below come from US11845724B2, “USP30 inhibitors and uses thereof” (Vincere Biosciences, Inc., priority 2019, dated 2023).

Molecules are shown by their SMILES. Where two headings read alike, the source gives them in different places. Where only a bound is given, the exact number is not on record here.

Chain of USP30 (Q70CQ3 whole entry): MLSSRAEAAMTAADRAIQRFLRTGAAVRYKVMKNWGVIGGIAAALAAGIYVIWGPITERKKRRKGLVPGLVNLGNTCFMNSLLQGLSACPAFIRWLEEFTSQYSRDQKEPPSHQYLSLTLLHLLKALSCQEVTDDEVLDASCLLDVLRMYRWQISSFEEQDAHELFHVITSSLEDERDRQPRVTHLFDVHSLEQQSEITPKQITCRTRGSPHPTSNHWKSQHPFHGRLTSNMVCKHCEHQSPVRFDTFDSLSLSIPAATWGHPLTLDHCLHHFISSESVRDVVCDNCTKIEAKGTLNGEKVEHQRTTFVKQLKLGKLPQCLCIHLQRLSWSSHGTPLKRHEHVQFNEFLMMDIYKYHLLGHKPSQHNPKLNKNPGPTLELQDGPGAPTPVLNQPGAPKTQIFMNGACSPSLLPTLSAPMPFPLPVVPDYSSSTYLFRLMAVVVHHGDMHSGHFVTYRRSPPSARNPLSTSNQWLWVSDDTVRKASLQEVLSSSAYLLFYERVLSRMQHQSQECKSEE
Chain of recombinant USP30 (amino acids 57-517 of the human sequence) (Q70CQ3 57-517): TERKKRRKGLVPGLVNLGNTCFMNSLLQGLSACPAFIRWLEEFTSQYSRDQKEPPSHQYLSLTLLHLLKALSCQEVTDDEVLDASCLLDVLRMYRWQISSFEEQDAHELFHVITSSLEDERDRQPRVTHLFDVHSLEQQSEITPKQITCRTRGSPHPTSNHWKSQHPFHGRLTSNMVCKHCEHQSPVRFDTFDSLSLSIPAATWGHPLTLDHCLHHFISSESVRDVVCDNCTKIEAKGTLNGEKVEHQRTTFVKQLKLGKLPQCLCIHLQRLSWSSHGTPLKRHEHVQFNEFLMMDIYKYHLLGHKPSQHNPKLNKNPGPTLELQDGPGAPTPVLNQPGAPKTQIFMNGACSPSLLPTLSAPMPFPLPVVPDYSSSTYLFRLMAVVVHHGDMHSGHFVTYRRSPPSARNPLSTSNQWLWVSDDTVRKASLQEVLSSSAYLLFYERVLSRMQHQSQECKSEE

As usually defined, the IC50 is the concentration at which inhibition is half-maximal. With `O=C(N[C@@H](Cc1ccccc1)C(=O)Nc1ccc(S(=O)(=O)NCCCN2CCOCC2)cn1)c1ccc(F)cc1` [Compound I-123, (S)-4-fluoro-N-(1-(5-(N-(3-morpholinopropyl)sulfamoyl)pyridin-2-ylamino)-1-oxo-3-phenylpropan-2-yl)benzamide], the IC50 (on USP30; in assay [1] (setting [2])) was 0.05 to 1 µM each time.
Take `O=C(N[C@H](Cc1ccccc1)C(=O)Nc1ccc(S(=O)(=O)NC23CC(C2)C3)cc1)c1ccc(F)cc1` [Compound I-99, (R)-N-(1-(4-(N-bicyclo[1.1.1]pentan-1-ylsulfamoyl)phenylamino)-1-oxo-3-phenylpropan-2-yl)-4-fluorobenzamide]: the IC50 (at USP30; in assay [1] (setting [3])) was over 10 µM in each case.
With `CCNS(=O)(=O)c1ccc(NC(=O)[C@H](Cc2ccccc2)NC(=O)c2ccc(F)cc2)c(F)c1` [Compound I-157, (S)-N-(1-(4-(N-ethylsulfamoyl)-2-fluorophenylamino)-1-oxo-3-phenylpropan-2-yl)-4-fluorobenzamide], the IC50 (on USP30; in assay [1] (setting [2])) was 0.05 to 1 µM throughout.
As for `CN(C(=O)c1ccc(F)cc1)[C@@H](Cc1cccnc1)C(=O)Nc1ccc(S(=O)(=O)NC23CC(C2)C3)cc1` [Compound I-92, (S)-N-(1-(4-(N-bicyclo[1.1.1]pentan-1-ylsulfamoyl)phenylamino)-1-oxo-3-(pyridin-3-yl)propan-2-yl)-4-fluoro-N-methylbenzamide], the concentration for half-maximal inhibition (IC50) (on USP30; in assay [1] (setting [2])) was 1 to 10 µM in each case.
`O=C(N[C@@H](Cc1ccccc1)C(=O)Nc1ccc(S(=O)(=O)NC2CCC2)cc1)c1ccccn1` [Compound I-78, (S)-N-(1-(4-(N-cyclobutylsulfamoyl)phenylamino)-1-oxo-3-phenylpropan-2-yl) picolinamide]: the IC50 lay within 0.05 to 1 µM at USP30 and 1 to 10 µM in assay [1] (setting [2]).
Turning to `CN(C(=O)c1ccc(F)cc1)[C@@H](Cc1ccccc1)C(=O)Nc1ccc(S(=O)(=O)NC2COC2)cc1` [Compound I-70, (S)-4-fluoro-N-methyl-N-(1-(4-(N-oxetan-3-ylsulfamoyl)phenylamino)-1-oxo-3-phenylpropan-2-yl)benzamide], the concentration for half-maximal inhibition (IC50) (at USP30; in assay [1] (setting [2])) was 1 to 10 µM in each case.
As for `COCC(C)(C)NS(=O)(=O)c1ccc(NC(=O)[C@H](Cc2ccccc2)NC(=O)c2ccc(F)cc2)cc1` [Compound I-134, (S)-4-fluoro-N-(1-(4-(N-(1-methoxy-2-methylpropan-2-yl)sulfamoyl)phenylamino)-1-oxo-3-phenylpropan-2-yl)benzamide], the concentration for half-maximal inhibition (IC50) (at USP30; in assay [1] (setting [3])) was under 0.05 µM each time.
Regarding `O=C(N[C@@H](Cc1ccccc1)C(=O)Nc1ccc(S(=O)(=O)NCCN2CCOCC2)cn1)c1ccc(F)cc1` [Compound I-122, (S)-4-fluoro-N-(1-(5-(N-(2-morpholinoethyl)sulfamoyl)pyridin-2-ylamino)-1-oxo-3-phenylpropan-2-yl)benzamide], the 50% inhibitory concentration (IC50) (at USP30; in assay [1] (setting [2])) was 0.05 to 1 µM throughout.
As for `Cc1cc(NC(=O)[C@H](Cc2ccccc2)NC(=O)c2ccc(F)cc2)ccc1S(=O)(=O)NC(C)(C)C` [Compound I-96, (S)-N-(1-(4-(N-tert-butylsulfamoyl)-3-methylphenylamino)-1-oxo-3-phenylpropan-2-yl)-4-fluorobenzamide], the values for the IC50 (on USP30; in assay [1] (setting [3])) were 0.05 to 1 µM and under 0.05 µM, respectively.
Consider `CN(C)CCNS(=O)(=O)c1ccc(NC(=O)[C@H](Cc2ccccc2)NC(=O)c2ccc(F)cc2)cc1` [Compound I-133, (S)-N-(1-(4-(N-(2-(dimethylamino)ethyl)sulfamoyl)phenylamino)-1-oxo-3-phenylpropan-2-yl)-4-fluorobenzamide], for which the half-inhibitory concentration (IC50) on USP30 lay in the range of 1 to 10 µM; in assay [1] (setting [2]) it was 0.05 to 1 µM.
For `CCNS(=O)(=O)c1ccc(NC(=O)[C@H](Cc2ccccc2)NC(=O)c2ccc(F)cc2)cc1` [Compound I-5, (S)-N-(1-(4-(N-Ethylsulfamoyl)phenylamino)-1-oxo-3-phenylpropan-2-yl)-4-fluorobenzamide], the 50% inhibitory concentration (IC50) at USP30 was under 0.05 µM; in assay [1] (setting [2]), 0.05 to 1 µM.
For `O=C(N[C@@H](Cc1ccccn1)C(=O)Nc1ccc(S(=O)(=O)NC23CC(C2)C3)cc1)c1ccc(F)cc1` [Compound I-141, (S)-N-(1-(4-(N-bicyclo[1.1.1]pentan-1-ylsulfamoyl)phenylamino)-1-oxo-3-(pyridin-2-yl)propan-2-yl)-4-fluorobenzamide], in that order: 0.05 to 1 µM and 0.05 to 1 µM.
Consider `CC(C)(C)NS(=O)(=O)c1ccc(NC(=O)[C@H](Cc2ccccc2)NC(=O)c2ccc(F)cn2)cc1` [Compound I-85, (S)-N-(1-(4-(N-tert-butylsulfamoyl)phenylamino)-1-oxo-3-phenylpropan-2-yl)-5-fluoropicolinamide], for which the values for the half-inhibitory concentration (IC50) (at USP30; in assay [1] (setting [3])) were 0.05 to 1 µM and under 0.05 µM, respectively.
For `CCNS(=O)(=O)c1cccc2c(NC(=O)[C@H](Cc3ccccc3)NC(=O)C3CCCCC3)cccc12` [Compound I-124, (S)-N-(1-(5-(N-ethylsulfamoyl)naphthalen-1-ylamino)-1-oxo-3-phenylpropan-2-yl)cyclohexanecarboxamide], the IC50 at USP30 is under 0.05 µM; in assay [1] (setting [2]), 0.05 to 1 µM.
Consider `CN(C(=O)c1ccc(F)cc1)[C@@H](Cc1cccnc1)C(=O)Nc1ccc(S(=O)(=O)NC(C)(C)C)cc1` [Compound I-91, (S)-N-(1-(4-(N-tert-butylsulfamoyl)phenylamino)-1-oxo-3-(pyridin-3-yl)propan-2-yl)-4-fluoro-N-methylbenzamide], for which the IC50 (on USP30; in assay [1] (setting [2])) was 0.05 to 1 µM each time.
`CC(C)(C)NS(=O)(=O)c1ccc(NC(=O)[C@H](Cc2ccccc2)NC(=O)c2ccc(F)cc2)c(F)c1` [Compound I-158, (S)-N-(1-(4-(N-tert-butylsulfamoyl)-2-fluorophenylamino)-1-oxo-3-phenylpropan-2-yl)-4-fluorobenzamide]: the IC50 (at USP30; in assay [1] (setting [3])) was under 0.05 µM in each case.
For `CC(C)(CO)NS(=O)(=O)c1ccc(NC(=O)[C@H](Cc2ccccc2)NC(=O)c2ccc(F)cc2)cn1` [Compound I-116, (S)-4-fluoro-N-(1-(6-(N-(1-hydroxy-2-methylpropan-2-yl)sulfamoyl)pyridin-3-ylamino)-1-oxo-3-phenylpropan-2-yl)benzamide], the half-inhibitory concentration (IC50) (on USP30; in assay [1] (setting [2])) was 0.05 to 1 µM each time.
For the compound `O=C(N[C@@H](Cc1ccccc1)C(=O)Nc1ccc(S(=O)(=O)NC2COC2)nc1)c1ccc(F)cc1` [Compound I-106, (S)-4-fluoro-N-(1-(6-(N-oxetan-3-ylsulfamoyl)pyridin-3-ylamino)-1-oxo-3-phenylpropan-2-yl)benzamide], the IC50 (at USP30; in assay [1] (setting [2])) was 0.05 to 1 µM throughout.
`O=C(N[C@@H](Cc1ccccc1)C(=O)Nc1ccc(S(=O)(=O)NC23CC(C2)C3)cc1)c1ccc(F)cn1` [Compound I-73, (S)-N-(1-(4-(N-bicyclo[1.1.1]pentan-1-ylsulfamoyl)phenylamino)-1-oxo-3-phenylpropan-2-yl)-5-fluoropicolinamide]: the IC50 at USP30 was under 0.05 µM; in assay [1] (setting [2]) it was 0.05 to 1 µM.
In the case of `O=C(N[C@@H](Cc1ccccn1)C(=O)Nc1ccc(S(=O)(=O)NC2COC2)cc1)c1ccc(F)cc1` [Compound I-140, (S)-4-fluoro-N-(1-(4-(N-oxetan-3-ylsulfamoyl)phenylamino)-1-oxo-3-(pyridin-2-yl)propan-2-yl)benzamide], the IC50 (at USP30; in assay [1] (setting [2])) was 0.05 to 1 µM in each case.
As for `O=C(N[C@@H](Cc1ccccc1)C(=O)Nc1ccc(S(=O)(=O)NCCO)cc1)c1ccc(F)cc1` [Compound I-138, (S)-4-fluoro-N-(1-(4-(N-(2-hydroxyethyl)sulfamoyl)phenylamino)-1-oxo-3-phenylpropan-2-yl)benzamide], the IC50 at USP30 was under 0.05 µM; in assay [1] (setting [2]) it was 0.05 to 1 µM.
The matching figures for `O=C(N[C@@H](Cc1ccccc1)C(=O)Nc1ccc(S(=O)(=O)NC23CC(C2)C3)cc1)c1cccc(F)c1` [Compound I-95, (S)-N-(1-(4-(N-bicyclo[1.1.1]pentan-1-ylsulfamoyl)phenylamino)-1-oxo-3-phenylpropan-2-yl)-3-fluorobenzamide]: 0.05 to 1 µM and 0.05 to 1 µM.
Turning to `CN(C(=O)c1ccc(F)cc1)[C@@H](Cc1ccccc1)C(=O)Nc1ccc(S(=O)(=O)NC23CC(C2)C3)cc1` [Compound I-72, (S)-N-(1-(4-(N-bicyclo[1.1.1]pentan-1-ylsulfamoyl)phenylamino)-1-oxo-3-phenylpropan-2-yl)-4-fluoro-N-methylbenzamide], the half-maximal inhibitory concentration (IC50) (on USP30; in assay [1] (setting [2])) was 1 to 10 µM in each case.
Regarding `CC(C)(C)OCCNS(=O)(=O)c1ccc(NC(=O)[C@H](Cc2ccccc2)NC(=O)c2ccc(F)cc2)cc1` [Compound I-135, (S)-N-(1-(4-(N-(2-tert-butoxyethyl)sulfamoyl)phenylamino)-1-oxo-3-phenylpropan-2-yl)-4-fluorobenzamide], the values for the IC50 (at USP30; in assay [1] (setting [2])) were 0.05 to 1 µM and 1 to 10 µM, respectively.
The matching figures for `O=C(N[C@@H](Cc1ccccc1)C(=O)Nc1ccc(S(=O)(=O)NC23CC(C2)C3)cc1)c1cccnc1` [Compound I-79, (S)-N-(1-(4-(N-bicyclo[1.1.1]pentan-1-ylsulfamoyl)phenylamino)-1-oxo-3-phenylpropan-2-yl)nicotinamide]: 0.05 to 1 µM and 1 to 10 µM.
